Usually melting point stands for the temperature of the solid-liquid transition. `COC(=O)c1ccc(Oc2ccc(NC(=O)Nc3ccc(Cl)c(C(F)(F)F)c3)cc2)cn1` [Entry 55, N-(4-chloro-3-(trifluoromethyl)phenyl)-N′-(4-(2-(methoxycarbonyl)-5-pyridyloxy)phenyl)urea] showed a melting point of 228 to 230 °C. The same measure for `CNC(=O)c1cc(Oc2ccc(NC(=O)Nc3ccc(Oc4ccnc(C(=O)NC)c4)cc3)cc2)ccn1` [Entry 103, bis(4-(2-(N-methylcarbamoyl)-4-pyridyloxy)phenyl)urea]: 125 to 130 °C.
